Measurements: PMC4546427, “Stereoselective Regulation of P-gp Activity by Clausenamide Enantiomers in Caco-2, KB/KBv and Brain Microvessel Endothelial Cells” (PLoS ONE, 2015)
Where “and” joins values, the source holds several entries; their conditions need not be identical. Equal values may be shown once.

Key:
P-gp [1] = assay: Rh123 accumulation in RBMECs; format: cell-based, rat; settings: RBMEC; for Increase in Rh123 accumulation relative to verapamil alone: co-treatment CLA 5 μmol/L with verapamil 200 μmol/L; for Percentage of rhodamine 123 accumulation relative to vehicle treatment: positive = increase
Protocol: The experimental programs in this part were approved by the Animal Care and Welfare Committee in our institute. Animals were treated in accordance with national/international guidelines. Primary cultures of brain microvessel endothelial cells were prepared from Sprague—Dawley rats (10–12 days old; Beijing Vital River Company, Beijing, China), as previously described by Qian et al.[21]. The gray matter of animals was taken out and minced into small pieces of approximately 1 mm^3 in ice-cold MEM medium, then dissociated by using 2 mg/mL collagenase containing DNase at a final concentration of 10.5 μg/ml on a shaker for 20 min at 37°C. The cells were pelleted by centrifugation(1000 rpm, 10 min, 4°C) and digested once again according to the above protocol. Then 20% dextran(Mr 40,000) was added to the cells for differential centrifugation at 2000 rpm for 10 min. The cells were re-suspended in complete MEM medium and passed through 74-μm stainless steel mesh. Obtained RBMECs were seeded on 1% (w/v) gelatin-coated culture flasks and cultivated in complete medium (MEM, 20% FBS, 0.9 mg/mL glutamate, 10 mmol/L hepes, 100 ng/mL bFGF, 100 μg/mL heparin sulphate, 100 units/mL penicillin, 100 μg/mL streptomycin sulphate and 50 units/mL amphotericin B) at 37°C and 5% CO2, which was refreshed with complete medium 4 h after seeding to eliminate non-endothelial cells. A final concentration of 2 μg/mL of puromycin was added for 7 h to further purify the cultured cells. The purity of RBMECs was examined by their morphological characteristics using a phase-contrast microscope, and immunocytochemistry of a specific marker, factor VIII-associated antigen, with a rabbit anti-factor VIII polyclonal antibody and FITC-conjugated goat anti-rabbit factor VIII secondary antibody by immunofluorescence microscopy (Olympus IX 70-S1Z2, Olympus Optical CO. Ltd., Japan). The P-gp expression in cultured cells was determined by Western blot analyses using a mouse monoclonal antibody raised against amino acids 1040–1280 of P-gp. When the cultures in the flasks reached 80%–90% confluence, the purified RBMECs were passaged by a brief treatment with trypsin (0.25%, w/v) and EDTA (0.02%, w/v) solution and seeded onto 6-well plates at a density of 5 × 10^5 cells/well; after 2–3 days, incubated with the following agents for 2 h under culture conditions (37°C, 5% CO2 and humidified air): vehicle; (−)CLA (1 or 5 μmol/L); (+)CLA (1 or 5 μmol/L); verapamil (200 μmol/L); or individual enantiomer (1 or 5 μmol/L) plus verapamil (200 μmol/L). In the end, Rh123 (5 μmol/L) was added to the whole wells. The cell incubation, solubilisation and Rh123 accumulation were performed according to the same method for Caco-2 cells described above.
Primary cultures of brain microvessel endothelial cells were prepared from Sprague–Dawley rats (10–12 days old; Beijing Vital River Company, Beijing, China), as previously described by Qian et al.[21]. Animals were anesthetized by intraperitoneal injection of 20% ethyl carbamate at dose of 1g/kg[35], and sterilized by immersion in 75% alcohol solution for 2 min. The gray matter of these animals was taken out and minced into small pieces of approximately 1 mm^3 in ice-cold MEM medium, then dissociated by using 2 mg/mL collagenase containing DNase at a final concentration of 10.5 μg/ml on a shaker for 20 min at 37°C. The cells were pelleted by centrifugation(1000 rpm, 10 min, 4°C) and digested once again according to the above protocol. Then 20% dextran(Mr 40,000) was added to the cells for differential centrifugation at 2000 rpm for 10 min. The cells were re-suspended in complete MEM medium and passed through 74-μm stainless steel mesh. […]

P-gp [2] = target: T1, P-gp (Homo sapiens, UniProt P08183); assay: Rh123 accumulation in non-induced KB cells; format: cell-based; settings: CLA 5 μmol/L, Rh123 5 μmol/L
T1 construct: three cells expressing P-gp, Caco-2, KBv and rat brain microvessel endothelial cells (RBMEC); endogenous in cells; host or cells: Caco-2
T1 sequence (P08183 whole entry): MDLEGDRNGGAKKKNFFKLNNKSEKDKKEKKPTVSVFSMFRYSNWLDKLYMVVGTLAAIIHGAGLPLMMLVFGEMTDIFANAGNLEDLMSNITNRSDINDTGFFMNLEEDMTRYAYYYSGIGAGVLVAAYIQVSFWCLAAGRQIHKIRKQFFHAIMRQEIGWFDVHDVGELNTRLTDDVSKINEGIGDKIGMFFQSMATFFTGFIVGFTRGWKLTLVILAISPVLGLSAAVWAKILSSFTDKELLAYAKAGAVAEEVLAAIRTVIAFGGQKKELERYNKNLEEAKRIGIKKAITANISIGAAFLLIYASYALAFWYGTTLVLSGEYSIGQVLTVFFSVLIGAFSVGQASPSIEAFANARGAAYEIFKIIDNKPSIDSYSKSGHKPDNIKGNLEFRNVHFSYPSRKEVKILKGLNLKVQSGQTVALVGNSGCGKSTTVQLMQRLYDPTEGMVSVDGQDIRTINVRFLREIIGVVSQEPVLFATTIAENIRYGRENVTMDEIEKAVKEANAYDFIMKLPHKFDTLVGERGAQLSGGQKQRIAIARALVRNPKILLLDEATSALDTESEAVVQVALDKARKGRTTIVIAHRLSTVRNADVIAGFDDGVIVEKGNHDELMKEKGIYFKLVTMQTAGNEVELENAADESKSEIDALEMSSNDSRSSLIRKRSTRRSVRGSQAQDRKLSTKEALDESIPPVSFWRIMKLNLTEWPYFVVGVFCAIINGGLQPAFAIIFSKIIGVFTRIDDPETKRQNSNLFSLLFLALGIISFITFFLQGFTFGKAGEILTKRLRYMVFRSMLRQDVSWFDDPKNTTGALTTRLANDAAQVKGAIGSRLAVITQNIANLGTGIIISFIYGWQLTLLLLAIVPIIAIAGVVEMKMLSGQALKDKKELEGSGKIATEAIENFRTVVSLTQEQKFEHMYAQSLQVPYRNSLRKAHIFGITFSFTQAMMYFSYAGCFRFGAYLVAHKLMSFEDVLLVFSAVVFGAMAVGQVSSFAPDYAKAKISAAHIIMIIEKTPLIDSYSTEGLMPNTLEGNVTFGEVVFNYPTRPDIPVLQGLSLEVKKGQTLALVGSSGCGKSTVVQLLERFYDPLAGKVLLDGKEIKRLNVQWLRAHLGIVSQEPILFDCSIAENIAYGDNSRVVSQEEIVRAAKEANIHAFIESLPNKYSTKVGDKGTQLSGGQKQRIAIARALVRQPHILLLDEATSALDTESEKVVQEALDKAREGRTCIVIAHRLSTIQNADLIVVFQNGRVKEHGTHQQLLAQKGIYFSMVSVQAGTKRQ
Protocol: KB or its vinblastine-resistance derivative KBv cells[19] were maintained on 6-well plates (5 × 10^5 cells/well) in […] medium with 10% FBS, 100 units/mL penicillin and 100 μg/mL streptomycin sulphate at 37°C with 95% air and 5% CO2. After reaching 80%–90% confluence, the two cells were treated with the following agents, respectively: vehicle; (−)CLA (5 or 10 μmol/L); (+)CLA (5 or 10 μmol/L). Additionally, the KBv cells were treated with verapamil (200 μmol/L); or individual enantiomer (5 or 10 μmol/L) plus verapamil (200 μmol/L). Rh123 (5 μmol/L) were finally added to these wells. Subsequently, cell incubation, solubilisation and Rh123 accumulation were performed by using the same method for Caco-2 cells.

[3] = high dose, CLA 5 μmol/L, Rh123 5 μmol/L, 2 h
[4] = low dose, CLA 1 μmol/L, Rh123 5 μmol/L, 2 h

Decrease of Rh123 accumulation vs. control (P-gp [2]) | Increase of Rh123 accumulation vs. control (P-gp [2]) | SMILES | Decrease of Rh123 accumulation relative to vehicle control (P-gp [1]; CLA 1 μmol/L, Rh123 5 μmol/L, 2 h) | Increase in Rh123 accumulation relative to verapamil alone (P-gp [1]) | Decrease in Rh123 accumulation relative to verapamil alone (P-gp [1]; co-treatment of verapamil 200 μmol/L with CLA 1 μmol/L) | Percentage of rhodamine 123 accumulation relative to vehicle treatment (P-gp [1]; [3]) | Percentage of rhodamine 123 accumulation relative to vehicle treatment (P-gp [1]; [4]) | Rh123 accumulation relative to verapamil alone (in words) (P-gp [1]; verapamil 200 μmol/L plus CLA 1 μmol/L)
28.2% |  | CN1C(=O)[C@H](O)[C@@H](c2ccccc2)[C@H]1[C@H](O)c1ccccc1 [(+)CLA, 3R,4S,5S,6R-CLA] | 20.0% | 18.5% | 26.5% | 41.1% and 41.13% | -20.04% | 
 | 18.0% | CN1C(=O)[C@@H](O)[C@H](c2ccccc2)[C@@H]1[C@@H](O)c1ccccc1 [(−)CLA, 3S, 4R, 5R, 6S-clausenamide] |  | 24.5% |  | 58.46% | 20.0% and 20.04% | slightly increased trend
